We go through 3 compounds from patent publication US5863550A, “Cholestasis ameliorant” (Tokyo Tanabe Company Limited, priority 1993, dated 1999).

SMILES strings stand for the structures. “Also recorded” adds a separate entry of the source.

The test system of one series is intrahepatic cholestasis. The following applies: cited from earlier work.
Series [1] deals with bile flow reduction induced by estradiol-17β-D-glucuronide (E-17-G). Briefly: Ameliorative effect against cholestasis in rats (E-17-G-induced reduction of bile flow). It is filed as in vivo, female SD rats. The procedure: An extra external-biliary fistula was developed in female SD rats under anesthesia and, after bile collection for 30 minutes, estradiol-17β-D-glucuronide (E-17-G) was administered via their femoral veins as a single dose of 10 μ mole/kg. Immediately after the administration, tauroursodeoxycholic acid was continuously administered over two hours via the femoral veins at a rate of 0.6 μ mole/min/100 g body weight, and the bile flow was measured serially.

Series [2] has as its system hepatic injury induced by α-naphthylisothiocyanate (ANIT). Briefly: Protective effect against hepatic injury in mice (ANIT). It is filed as in vivo, male ICR mice. As to the method:
Tauroursodeoxycholic acid was administered to male ICR mice via their caudal veins at a dose within a range of 100 to 1200μ mole/kg two hours before and two hours after an administration of α-naphthylisothiocyanate (ANIT) as a single dose of 80 mg/kg. Serum bilirubin concentration, total bile acid concentration and LDH activity were measured two days after the ANIT administration.

Series [3] relates to patients with cholestasis. Kind of series: Clinical results of tauroursodeoxycholic acid injection (patients with cholestasis / jaundice). It counts as in vivo, human (patients). As to the method: Since tylosis of the gallbladder walls was observed by abdominal ultrasonic imaging and there were severe icteric symptoms, this case was diagnosed as cholestasis due to drug-induced hepatopathy.
At a stage when moderate jaundice still remained (total bilirubin: 6.9 mg/dl) and no improvement had been noted in subjective symptoms such as skin itching and epigastric discomfort, tauroursodeoxycholic acid was intravenously injected once a day at a dose of 100 mg for 14 days. As a result, the total bilirubin level, GOT and GPT were decreased to 2.1 mg/dl, 45 U/l and 36 U/l, respectively, and the icteric symptoms as well as the subjective symptoms such as skin itching and epigastric discomfort were disappeared.
[…] After the patient came back to Japan on April 5 and was hospitalized, tauroursodeoxycholic acid was intravenously administered once a day at a dose of 100 mg for 14 days.
At a stage when moderate jaundice was observed (total bilirubin: 9.0 mg/dl, GOT: 838 U/l, GPT 451 U/l), tauroursodeoxycholic acid was administered once a day at a dose of 300 mg by intravenous drip infusion for 14 days.
This patient was diagnosed to suffer from cholestasis due to acute viral hepatitis based on results of immuno-serological test including GOT of 11600 U/l, GPT of 6300 U/l and total bilirubin level of 7.7 mg/dl and HBV positive result of virological test as well as severe icteric symptoms.
At a stage when jaundice was still severe (total bilirubin: 16.19 mg/dl), tauroursodeoxycholic acid was administered once a day at a dose of 300 mg by intravenous drip infusion for 14 days. As a result, the total bilirubin level, GOT and GPT were decreased to 4.4 mg/dl, 48 U/l and 36 U/l, respectively, icteric symptoms were improved from the day after one week of the administration and subjective symptoms such as skin itching and systemic malaise were disappeared by the 10th day of the administration.
This patient began to feel general malaise in late June 1993 and, since jaundice appeared on Jun. 28, they visited a neighboring clinic and received treatment. In spite of that, jaundice was not improved and they referred to our medical institution on July 5. Based on the results of inspections, the patient was diagnosed to suffer cholestasis due to acute viral hepatitis (type B).
Tauroursodeoxycholic acid was administered by intravenous injection once a day at a dose of 600 mg for 18 days from July 8.
This patient noticed jaundice in the middle of May 1993 and consulted a doctor. Their symptom was diagnosed as obstructive jaundice based on images of enlargement of the bilateral intrahepatic bile ducts and 3-4 cm long irregular stenosis in the choledoch observed in endoscopic retrograde cholangiopancreatography (ERCP) and underwent endoscopic […] bile duct drainage (ENBD) on May 31.
Because icteric symptoms were not improved, tauroursodeoxycholic acid was intravenously injected once a day at a dose of 100 mg for 22 days.
This patient was diagnosed to suffer from pancreatic cancer by ERCP. […] Concurrently, icteric symptoms and skin itching were continued. Therefore, tauroursodeoxycholic acid was intravenously injected once a day at a dose of 600 mg for 38 days. As a result, the total bilirubin level was decreased to 3.3 mg/dl, the bile flow was increased from the preadministration level of 230 ml/day to 440 ml/day, and icteric symptoms and skin itching were improved.

Series [4] is described as follows: Acute toxicity (LD50), intravenous, rats. Set-up: species or system 6-week old CD rats. The conditions noted are these: rat, in vivo. As to the method:
(§1) The acute toxicity (LD50) of intravenously administered tauroursodeoxycholic acid was evaluated in 6-week old male and female CD rats and 8 to 11-month old male and female beagle dogs. The LD50 was 600 to 800 mg/kg in male rats and 800 to 1000 mg/kg in female rats.

A short description of series [5]: Acute toxicity (LD50), intravenous, beagle dogs. Further details: species or system 8 to 11-month old beagle dogs. The conditions noted are these: dog, in vivo, both sexes. The procedure:
as §1

The next series is described as follows: Solubility in water. It is filed as physicochemical. The conditions noted are these: in words.
For series [6] the following is noted: in words, background; cited from earlier work.
[7] abbreviates: 100 to 1200 μ mole/kg via caudal veins two hours before and two hours after ANIT 80 mg/kg, two days after ANIT.
Setting [8] is: Example 2 patient, 100 mg i.v. once a day for 14 days, from the day after three days of the administration.
Setting [9] is: Example 5 patient, 600 mg i.v. once a day for 18 days.
Setting [10] is: Example 6 patient, obstructive jaundice, ENBD, 100 mg i.v. once a day for 22 days, after one week.

On to `CCC1(c2ccccc2)C(=O)NC(=O)NC1=O` [phenobarbital], for which the “efficacy in the treatment of intrahepatic cholestasis” value in the series with intrahepatic cholestasis (steroid and phenobarbital preparations currently used) is on record as “a certain level of, but often insufficient, efficacy”.
Regarding `C[C@H](CCC(=O)NCCS(=O)(=O)O)[C@H]1CC[C@H]2[C@@H]3[C@@H](O)C[C@@H]4C[C@H](O)CC[C@]4(C)[C@H]3CC[C@]12C` [tauroursodeoxycholic acid], in series [1] (female SD rats, E-17-G 10 μ mole/kg i.v., continuous infusion over two hours via femoral veins), the “infusion rate at or above which the reduction of the bile flow induced by E-17-G was inhibited” value is on record as ≥ 0.3 μ mole/min/100 g body weight. The “inhibition of the reduction of bile flow compared with free ursodeoxycholic acid” value in series [1] (female SD rats, E-17-G 10 μ mole/kg i.v., comparator free ursodeoxycholic acid) is “more marked than that of free ursodeoxycholic acid”. For the same compound, the cholagogue effect result in series [1] (general conclusion) is on record as “exerts cholagogue effect”. Further, the “increase of LDH activity induced by ANIT” value in series [2] (setting [7]) was “inhibited”. For the same compound, in series [2] (setting [7]), the “increase of serum bilirubin concentration induced by ANIT” value is reported as “inhibited”. Further, in series [2] (setting [7]), the “increase of total bile acid concentration induced by ANIT” value was “inhibited”. The “protective effect of hepatocyte” value in series [2] (general conclusion) is given as “protective effect of hepatocyte”. Also, the total bilirubin level in series [3] (Example 1 patient, drug-induced hepatopathy, 100 mg i.v. once a day for 14 days, before: 6.9 mg/dl) was 2.1 mg/dL; in series [3] (Example 2 patient, acute viral hepatitis, 100 mg i.v. once a day for 14 days, before: 31.4 mg/dl), 13.7 mg/dL; in series [3] (Example 3 patient, drug-induced hepatopathy, 300 mg once a day i.v. drip infusion for 14 days, before: 9.0 mg/dl) it was 2.8 mg/dL; in series [3] (Example 4 patient, acute viral hepatitis (HBV positive), 300 mg once a day i.v. drip infusion for 14 days, before: 16.19 mg/dl), 4.4 mg/dL; in series [3] (Example 5 patient, acute viral hepatitis (type B), 600 mg i.v. once a day, after 4 days) it was “reduced by half”; in series [3] (Example 5 patient, acute viral hepatitis (type B), 600 mg i.v. once a day, after one week) it was “almost within the normal range”. In addition, the total bilirubin level result in series [3] (setting [10]) was “decrease of the total bilirubin level”; in series [3] (Example 7 patient, pancreatic cancer, PTCD, 600 mg i.v. once a day for 38 days, before: around 15 mg/dl), 3.3 mg/dL. The GOT in series [3] (Example 1 patient, drug-induced hepatopathy, 100 mg i.v. once a day for 14 days, peak before: 548 U/l) is listed as 45 U/l; in series [3] (Example 3 patient, 300 mg once a day i.v. drip infusion for 14 days, before: 838 U/l) it was 171 U/l; in series [3] (Example 4 patient, 300 mg once a day i.v. drip infusion for 14 days, at diagnosis: 11600 U/l), 48 U/l. Further, the GPT came to 36 U/l in series [3] (Example 1 patient, drug-induced hepatopathy, 100 mg i.v. once a day for 14 days, peak before: 664 U/l); 145 U/l in series [3] (Example 3 patient, 300 mg once a day i.v. drip infusion for 14 days, before: 451 U/l); 36 U/l in series [3] (Example 4 patient, 300 mg once a day i.v. drip infusion for 14 days, at diagnosis: 6300 U/l). For the same compound, the “icteric symptoms and subjective symptoms such as skin itching and epigastric discomfort” value in series [3] (Example 1 patient, 100 mg i.v. once a day for 14 days) is reported as “disappeared”. In addition, in series [3] (Example 2 patient, acute viral hepatitis, 100 mg i.v. once a day for 14 days, before: 21 μmole/l), the “total bile acid level” value turned out to be 12 µmol/L. The icteric symptoms result in series [3] (setting [8]) is “improvement of icteric symptoms”; in series [3] (Example 4 patient, 300 mg once a day i.v. drip infusion, from the day after one week of the administration) it was “improved”. The “subjective symptoms such as skin itching and anorexia” value in series [3] (setting [8]) is reported as “disappeared”. In series [3] (Example 3 patient, 300 mg once a day i.v. drip infusion for 14 days), the “icteric symptoms due to cholestasis” value is “improvement in icteric symptoms”. The “total bilirubin level, GOT and GPT after completion of administration” value in series [3] (Example 3 patient, two weeks after the completion of 300 mg once a day i.v. drip infusion for 14 days) is given as “no increase was observed”. For the same compound, the “subjective symptoms such as skin itching and systemic malaise” value in series [3] (Example 4 patient, 300 mg once a day i.v. drip infusion, by the 10th day of the administration) is given as “disappeared”. Also, the “icteric symptoms and general malaise” value in series [3] (setting [9]) is reported as “disappeared”. Besides, the “other parameters related to the liver function” value in series [3] (setting [9]) was “improved”. For the same compound, the “jaundice and skin itching” value in series [3] (Example 6 patient, obstructive jaundice, ENBD, 100 mg i.v. once a day for 22 days) was “improvement of jaundice and skin itching”. Moreover, the bile flow entry in series [3] (setting [10]) is “apparent increase of bile flow”; in series [3] (Example 7 patient, pancreatic cancer, PTCD, 600 mg i.v. once a day for 38 days, preadministration 230 ml/day) it was 440 mL/day. Besides, in series [3] (Example 7 patient, pancreatic cancer, PTCD, 600 mg i.v. once a day for 38 days), the “icteric symptoms and skin itching” value was “improved”. Also, the “ameliorative effect against cholestasis” value in series [3] (general finding, patients with liver diseases) is “ameliorative effect against cholestasis”. Besides, the LD50 is 800 to 1000 mg/kg in series [4] (female rats), 600 to 800 mg/kg in series [4] (male rats) and 300 to 600 mg/kg in series [5]. Further, the solubility in water result in the series “Solubility in water” is given as “better solubility in water as compared with ursodeoxycholic acid; also recorded: high solubility in water; also recorded: excellent solubility in water”.
Turning to `C[C@H](CCC(=O)O)[C@H]1CC[C@H]2[C@@H]3[C@@H](O)C[C@@H]4C[C@H](O)CC[C@]4(C)[C@H]3CC[C@]12C` [ursodeoxycholic acid], the solubility entry in series [6] is “very low”. Further, in the series on intrahepatic cholestasis (ursodeoxycholic acid preparations, recently reported in Japan and other countries), the “efficacy against intrahepatic cholestasis” value was “very high efficacy”.
